The results in this text go back to article PMC5438989, “Protein Biochemistry and Expression Regulation of Cadmium/Zinc Pumping ATPases in the Hyperaccumulator Plants Arabidopsis halleri and Noccaea caerulescens” (Frontiers in Plant Science, 2017).

The target of the assay is T1, NcHMA4 (=TcHMA4) (Noccaea caerulescens, UniProt Q69AX6).
T1 construct: 60-70 kD band on Western blot, so possibly processed; no added tag
T1 sequence (Q69AX6 1-1186): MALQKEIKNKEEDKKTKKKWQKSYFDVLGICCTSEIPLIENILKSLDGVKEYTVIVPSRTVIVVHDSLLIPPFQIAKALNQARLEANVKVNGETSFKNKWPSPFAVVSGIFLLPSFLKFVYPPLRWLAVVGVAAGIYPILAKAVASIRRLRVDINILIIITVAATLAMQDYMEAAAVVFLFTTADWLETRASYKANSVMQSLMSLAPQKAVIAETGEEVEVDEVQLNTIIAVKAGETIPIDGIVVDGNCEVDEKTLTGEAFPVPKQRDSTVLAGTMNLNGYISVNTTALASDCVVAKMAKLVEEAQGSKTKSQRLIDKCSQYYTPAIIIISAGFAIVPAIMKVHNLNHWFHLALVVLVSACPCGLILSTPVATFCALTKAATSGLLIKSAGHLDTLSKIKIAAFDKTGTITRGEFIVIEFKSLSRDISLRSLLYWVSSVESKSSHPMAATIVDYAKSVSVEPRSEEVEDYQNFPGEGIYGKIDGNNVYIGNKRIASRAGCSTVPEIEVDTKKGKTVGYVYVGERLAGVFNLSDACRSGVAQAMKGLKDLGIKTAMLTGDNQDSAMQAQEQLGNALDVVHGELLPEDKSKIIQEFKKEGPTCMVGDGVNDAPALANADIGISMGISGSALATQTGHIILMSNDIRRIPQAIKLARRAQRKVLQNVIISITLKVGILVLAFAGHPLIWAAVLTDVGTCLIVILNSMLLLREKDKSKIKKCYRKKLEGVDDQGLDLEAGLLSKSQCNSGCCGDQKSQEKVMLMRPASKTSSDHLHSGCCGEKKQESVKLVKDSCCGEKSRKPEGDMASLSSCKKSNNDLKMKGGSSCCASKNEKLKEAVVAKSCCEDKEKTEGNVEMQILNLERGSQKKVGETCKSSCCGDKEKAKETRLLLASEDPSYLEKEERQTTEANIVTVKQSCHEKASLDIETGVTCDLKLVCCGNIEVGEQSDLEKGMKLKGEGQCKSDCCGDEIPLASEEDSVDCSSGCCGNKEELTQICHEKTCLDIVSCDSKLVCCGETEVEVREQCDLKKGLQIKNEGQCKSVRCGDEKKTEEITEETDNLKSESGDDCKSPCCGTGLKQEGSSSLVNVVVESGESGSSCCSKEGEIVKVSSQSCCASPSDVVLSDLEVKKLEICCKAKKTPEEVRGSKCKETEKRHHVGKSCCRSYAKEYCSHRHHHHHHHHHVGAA
Put plainly: ATPase assay by phosphate release; F5 electrochromic dye fluorescence. In kind it is biochemical. The following applies: Cd2+ or Zn2+ activated; dye assay: 5 mM ATP, protein in phosphatidylcholine vesicles, 20 °C.

Molecules are shown by their SMILES.

On to `Nc1ncnc2c1ncn2[C@@H]1O[C@H](COP(=O)(O)OP(=O)(O)OP(=O)(O)O)[C@@H](O)[C@H]1O` [ATP], for which the “ATPase assay by phosphate release; F5 electrochromic dye fluorescence” value is recorded as “Addition of ATP caused dropping of fluorescence when added to an assay containing active enzyme”.
